# Data: patent US8912188B2, “Substituted quinoxaline carboxylic acids for the inhibition of PASK” (BioEnergenix, LLC, priority 2011, dated 2014)
# Target: T1, PASK (Invitrogen) (Homo sapiens, UniProt Q96RG2)
# T1 construct: IC50 Kinase Domain; purchased Invitrogen
# Experiment: PAS Kinase FRET Assay
# Assay type: biochemical
# Conditions: PAS kinase TR-FRET assay (665 nm/615 nm), 2 hours at 25° C.; read-out: IC50 Kinase Domain
# Excerpt: Biochemical Assay for hPASK Activity
# The aim of the FRET assay is to determine the inhibition potential of test compounds on targeted kinase. This assay platform provides a homogenous screening method for measuring kinase activity by quantitating the amount of phospho-substrate in solution following a kinase reaction.
# In the presence of kinase and ATP, the Ulight-peptide is phosphorylated and captured by an anti-phospho-substrate antibody, which brings the Eu chelate donor and Ulight acceptor dyes into close proximity.
# Titration of kinase at 1 mM ATP was achieved via the following protocol. […] The contents of the plate were incubated at RT for 1 h. The reaction was stopped by adding 5 μl of stop solution to each test well followed by mixing and incubation at RT for 10 minutes. 5 μl of detection mix (detection antibody diluted in detection buffer) was added; the contents of the plate were mixed and then incubated in the dark for 1 hour at RT. […] The results were graphed to calculate the EC50.
# Titration of ATP at the EC50 concentration of kinase to determine ATP Km,app. was performed using the following method. […] The contents of the plate were and incubated at RT for 1 h. The reaction was stopped by adding 5 μl of stop solution to each test well followed by mixing and incubation at RT for 10 minutes. […] (detection antibody diluted in detection buffer) was added; the contents of the plate were mixed and then incubated in the dark for 1 hour at RT. […] The results were graphed to calculate the EC50 as the ATP Km,app.
# Compound screening was done via the following method. 10 mM stock solution of test compound in DMSO was prepared by dissolving test compound in DMSO at RT for 1 hour, and then sonicating at 100% output for 8 minutes. If compound is not soluble under this condition, it was diluted to 3 mM. Kinase reaction buffer was prepared containing 10 mM MgCl2, 50 mM HEPES, 1 mM EGTA, 0.01% TWEEN-20, 2 mM DTT. […] As a positive control, 2.5 μl of positive compound was added to assay wells, and 2.5 μl of DMSO to assay wells as vehicle control. Kinase solution was prepared in reaction buffer at 2× final assay concentration. Kinase solution (5 μl) was added to each well of the assay plate. The substrate and ATP solution was prepared in kinase reaction buffer at 4× final assay concentration. The kinase reaction was started by adding 2.5 μl of substrate+ATP mix solution to each well of the assay plate. The plate is mixed on a plate shaker; then covered and allowed to react for 2 hours in the dark at 25° C. without shaking. The reaction was stopped by adding 5 μl of stop solution to each test well followed by mixing and incubation at RT for 10 minutes in the dark. 5 μl of detection mix (detection antibody diluted in detection buffer) was added; the contents of the plate were mixed and then incubated in the dark for 1 hour at RT.
# T1 sequence (Q96RG2 999-1251 limits assumed): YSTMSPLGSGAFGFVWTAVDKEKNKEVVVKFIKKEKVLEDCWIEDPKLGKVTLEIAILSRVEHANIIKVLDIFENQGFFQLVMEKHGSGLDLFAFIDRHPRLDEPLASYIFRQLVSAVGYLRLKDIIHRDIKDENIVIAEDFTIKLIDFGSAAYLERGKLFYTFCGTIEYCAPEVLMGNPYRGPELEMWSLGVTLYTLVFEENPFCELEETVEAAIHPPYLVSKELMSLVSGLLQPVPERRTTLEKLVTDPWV
row,SMILES,IC50 [µM]
1,"C[C@H]1CCCN1c1nc2cc(C(=O)O)ccc2nc1-c1ccc2[nH]ccc2c1 [Example 40, (S)-2-(1H-Indol-5-yl)-3-(2-methylpyrrolidin-1-yl)quinoxaline-6-carboxylic acid]",< 10
2,"CC(C)N(C)c1nc2cc(C(=O)O)ccc2nc1-c1ccc2c(c1)OC(F)(F)O2 [Example 42, 2-(2,2-Difluorobenzo[d][1,3]dioxol-5-yl)-3-(isopropyl(methyl)amino)quinoxaline-6-carboxylic acid]",< 10
3,"CC(C)N(C)c1nc2cc(C(=O)O)ccc2nc1-c1ccn[nH]1 [Example 43, 3-(Isopropyl(methyl)amino)-2-(1H-pyrazol-5-yl)quinoxaline-6-carboxylic acid]",< 10
4,"CC(C)N(C)c1nc2cc(C(=O)O)ccc2nc1-c1ccc2ncccc2c1 [Example 46, 3-(Isopropyl(methyl)amino)-2-(quinolin-6-yl)quinoxaline-6-carboxylic acid]",< 10
5,"C[C@H]1CCCN1c1nc2cc(C(=O)O)ccc2nc1-c1ccc2[nH]ncc2c1 [Example 47, 2-(1H-Indazol-5-yl)-3-[(2S)-2-methylpyrrolidin-1-yl]quinoxaline-6-carboxylic acid]",< 10
6,"O=C(O)c1ccc2nc(-c3cc4ccccc4s3)c(N3CCCCCC3)nc2c1 [Example 54, 3-(Azepan-1-yl)-2-(benzo[b]thiophen-2-yl)quinoxaline-6-carboxylic acid]",< 10
7,"C[C@H]1CCCN1c1nc2cc(C(=O)O)ccc2nc1-c1nc2ccccc2s1 [Example 59, 2-(1,3-Benzothiazol-2-yl)-3-[(2S)-2-methylpyrrolidin-1-yl]quinoxaline-6-carboxylic acid]",< 10
8,"CC(C)N(C)c1nc2cc(C(=O)O)ccc2nc1-c1ccc2nccnc2c1 [Example 60, 3-(isopropyl(methyl)amino)-2,7′-biquinoxaline-6-carboxylic acid]",< 10
9,"O=C(O)c1ccc2nc(-c3cc4cc(F)ccc4o3)c(N3CCCC3)nc2c1 [Example 62, 2-(5-Fluoro-1-benzofuran-2-yl)-3-(pyrrolidin-1-yl)quinoxaline-6-carboxylic acid]",< 10
10,"O=C(O)c1ccc2nc(-c3ccc4[nH]ccc4c3)c(N3CCCCC3)nc2c1 [Example 65, 2-(1H-Indol-5-yl)-3-(piperidin-1-yl)quinoxaline-6-carboxylic acid]",< 10
11,"CC(C)Nc1nc2cc(C(=O)O)ccc2nc1-c1cc2ccccc2o1 [Example 70, 2-(1-Benzofuran-2-yl)-3-[(propan-2-yl)amino]quinoxaline-6-carboxylic acid]",< 10
12,"C[C@H]1CN(c2ccccn2)CCN1c1nc2cc(C(=O)O)ccc2nc1-c1ccc2[nH]ncc2c1 [Example 92, (S)-2-(1H-indazol-5-yl)-3-(2-methyl-4-(pyridin-2-yl)piperazin-1-yl)quinoxaline-6-carboxylic acid]",< 10
13,"CC(C)N(C)c1nc2cc(C(=O)O)ccc2nc1-c1ccc2c(c1)nnn2C [Example 95, 3-(Isopropyl(methyl)amino)-2-(1-methyl-1H-benzo[d][1,2,3]triazol-5-yl)quinoxaline-6-carboxylic acid]",> 10
14,"CN(Cc1ccccc1)c1nc2cc(C(=O)O)ccc2nc1-c1ccc2[nH]ncc2c1 [Example 97, 3-(Benzyl(methyl)amino)-2-(1H-indazol-5-yl)quinoxaline-6-carboxylic acid]",< 10
15,"Cc1cc2cc(-c3nc4ccc(C(=O)O)cc4nc3N3CCN(c4ccccn4)C[C@@H]3C)ccc2[nH]1 [Example 99, (S)-2-(2-Methyl-1H-indol-5-yl)-3-(2-methyl-4-(pyridin-2-yl)piperazin-1-yl)quinoxaline-6-carboxylic acid]",< 10
16,"O=C(O)c1ccc2nc(-c3ccc(F)cc3)c(N3CCC[C@@H]3C(F)(F)F)nc2c1 [Example 101, (R)-2-(4-Fluorophenyl)-3-(2-(trifluoromethyl)pyrrolidin-1-yl)quinoxaline-6-carboxylic acid]",< 10
17,"CN(c1nc2cc(C(=O)O)ccc2nc1-c1ccc(F)cc1)C1CCNCC1 [Example 103, 2-(4-Fluorophenyl)-3-(methyl(piperidin-4-yl)amino)quinoxaline-6-carboxylic acid]",< 10

# Results, then the compound that gave them:
row,IC50 [µM],SMILES
1,< 10,"C[C@H]1CCCN1c1nc2cc(C(=O)O)ccc2nc1-c1cc2cc(F)ccc2o1 [Example 41, (S)-2-(5-Fluorobenzofuran-2-yl)-3-(2-methylpyrrolidin-1-yl)quinoxaline-6-carboxylic acid]"
2,< 10,"CN(c1nc2cc(C(=O)O)ccc2nc1-c1cc2ccc(F)cc2o1)C1CC1 [Example 49, 3-(Cyclopropyl(methyl)amino)-2-(6-fluorobenzofuran-2-yl)quinoxaline-6-carboxylic acid]"
3,< 10,"CC(C)N(C)c1nc2cc(C(=O)O)ccc2nc1-c1ccc2oncc2c1 [Example 50, 2-(1,2-Benzoxazol-5-yl)-3-[methyl(propan-2-yl)amino]quinoxaline-6-carboxylic acid]"
4,< 10,"O=C(O)c1ccc2nc(-c3cc4ccccc4s3)c(N3CCCCC3)nc2c1 [Example 53, 2-(Benzo[b]thiophen-2-yl)-3-(piperidin-1-yl)quinoxaline-6-carboxylic acid]"
5,< 10,"CC(C)N(C)c1nc2cc(C(=O)O)ccc2nc1-c1ccc2scnc2c1 [Example 56, 2-(Benzo[d]thiazol-5-yl)-3-(isopropyl(methyl)amino)quinoxaline-6-carboxylic acid]"
6,< 10,"CC(C)N(C)c1nc2cc(C(=O)O)ccc2nc1-c1nc2ccccc2s1 [Example 58, 2-(1,3-Benzothiazol-2-yl)-3-[methyl(propan-2-yl)amino]quinoxaline-6-carboxylic acid]"
7,< 10,"COC[C@H]1CCCN1c1nc2cc(C(=O)O)ccc2nc1-c1ccc2[nH]ccc2c1 [Example 67, 2-(1H-Indol-5-yl)-3-[(2R)-2-(methoxymethyl)pyrrolidin-1-yl]quinoxaline-6-carboxylic acid]"
8,< 10,"C[C@H]1CCCN1c1nc2cc(C(=O)O)ccc2nc1-c1ccoc1 [Example 78, 2-(Furan-3-yl)-3-[(2S)-2-methylpyrrolidin-1-yl]quinoxaline-6-carboxylic acid]"
9,< 10,"C[C@H]1CCCN1c1nc2cc(C(=O)O)ccc2nc1-c1coc2ccccc12 [Example 82, 2-(1-Benzofuran-3-yl)-3-[(2S)-2-methylpyrrolidin-1-yl]quinoxaline-6-carboxylic acid]"
10,< 10,"CC(C)N(C)c1nc2cc(C(=O)O)ccc2nc1-c1occc1-c1ccccc1 [Example 83, 3-[Methyl(propan-2-yl)amino]-2-(3-phenylfuran-2-yl)quinoxaline-6-carboxylic acid]"
11,< 10,"CC(C)N(C)c1nc2cc(C(=O)O)ccc2nc1-c1ccc(-c2ccc(F)cc2)o1 [Example 84, 2-[5-(4-Fluorophenyl)furan-2-yl]-3-[methyl(propan-2-yl)amino]quinoxaline-6-carboxylic acid]"
12,< 10,"CC(C)N(C)c1nc2cc(C(=O)O)ccc2nc1-c1cnn(C)c1 [Example 90, 3-[Methyl(propan-2-yl)amino]-2-(1-methyl-1H-pyrazol-4-yl)quinoxaline-6-carboxylic acid]"
13,< 10,"CC(C)N(C)c1nc2cc(C(=O)O)ccc2nc1-c1cnn(-c2ccccc2)c1 [Example 91, 3-[Methyl(propan-2-yl)amino]-2-(1-phenyl-1H-pyrazol-4-yl)quinoxaline-6-carboxylic acid]"
14,< 10,"CC(C)N(C)c1nc2cc(C(=O)O)ccc2nc1-c1ccc2[nH]nnc2c1 [Example 94, 2-(1H-Benzo[d][1,2,3]triazol-5-yl)-3-(isopropyl(methyl)amino)quinoxaline-6-carboxylic acid]"
15,< 10,"C[C@H]1CCCN1c1nc2cc(C(=O)O)ccc2nc1-c1ccc2[nH]nnc2c1 [Example 96, (S)-2-(1H-Benzo[d][1,2,3]triazol-5-yl)-3-(2-methylpyrrolidin-1-yl)quinoxaline-6-carboxylic acid]"
16,< 10,"C[C@@H](c1ccccc1)N(C)c1nc2cc(C(=O)O)ccc2nc1-c1ccc2[nH]ncc2c1 [Example 98, (S)-2-(1H-Indazol-5-yl)-3-(methyl(1-phenylethyl)amino)quinoxaline-6-carboxylic acid]"
17,< 10,"CN(c1nc2cc(C(=O)O)ccc2nc1-c1ccc(F)cc1)C1CCOCC1 [Example 102, 2-(4-Fluorophenyl)-3-(methyl(tetrahydro-2H-pyran-4-yl)amino)quinoxaline-6-carboxylic acid]"
